Assay results from PMC7239824, “Impact of intracellular hemin on N-type inactivation of voltage-gated K^+ channels” (Pflugers Archiv, 2020).

Target: T1, hKvβ1.1 1-140 (Homo sapiens, UniProt Q14722)
T1 construct: gene KCNAB1; E. coli BL21(DE3) pRIL; NHS-dye labelled
T1 sequence (Q14722 1-140 isoform Q14722-2): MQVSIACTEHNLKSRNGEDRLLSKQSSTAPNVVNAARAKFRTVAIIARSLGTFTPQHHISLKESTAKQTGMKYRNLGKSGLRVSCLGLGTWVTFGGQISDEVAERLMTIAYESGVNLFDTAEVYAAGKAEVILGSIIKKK
Experiment: microscale thermophoresis
Conditions: read-out: binding constant

Kd: 98 ± 14 nM
SMILES: C=CC1=C(C)C2=Cc3c(C=C)c(C)c4[n]3[Fe]([Cl])[n]3c(c(C)c(CCC(=O)O)c3=CC3=NC(=C4)C(C)=C3CCC(=O)O)=CC1=N2 [hemin]
